pIC50: −log10 of the molar value.
molecular target: human PAD4 (hPAD4) (Homo sapiens, UniProt Q9UM07); assay: RFMS Human PAD4 Functional Assay; format: biochemical; settings: hPAD4 RFMS IC50, human PAD4, rapid-fire mass spectrum (RFMS) assay; 5 nM hPAD4, 250 μM BAEE
Outline: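 RapidFire ESI-MS quantification, normalised to a modified-citrulline internal standard, after phenyl glyoxal (final 4 mM) derivatisation of the TCA-quenched reaction. The enzyme (10 nM) sat 30 min with compound (up to 50 μM final) before 500 μM BAEE (as added) started a 90 min, 37 °C reaction. Buffer: HEPES pH 7.5, 50 μM calcium, 5 μM TPEN.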

Sequence of human PAD4 (hPAD4) (Q9UM07 whole entry): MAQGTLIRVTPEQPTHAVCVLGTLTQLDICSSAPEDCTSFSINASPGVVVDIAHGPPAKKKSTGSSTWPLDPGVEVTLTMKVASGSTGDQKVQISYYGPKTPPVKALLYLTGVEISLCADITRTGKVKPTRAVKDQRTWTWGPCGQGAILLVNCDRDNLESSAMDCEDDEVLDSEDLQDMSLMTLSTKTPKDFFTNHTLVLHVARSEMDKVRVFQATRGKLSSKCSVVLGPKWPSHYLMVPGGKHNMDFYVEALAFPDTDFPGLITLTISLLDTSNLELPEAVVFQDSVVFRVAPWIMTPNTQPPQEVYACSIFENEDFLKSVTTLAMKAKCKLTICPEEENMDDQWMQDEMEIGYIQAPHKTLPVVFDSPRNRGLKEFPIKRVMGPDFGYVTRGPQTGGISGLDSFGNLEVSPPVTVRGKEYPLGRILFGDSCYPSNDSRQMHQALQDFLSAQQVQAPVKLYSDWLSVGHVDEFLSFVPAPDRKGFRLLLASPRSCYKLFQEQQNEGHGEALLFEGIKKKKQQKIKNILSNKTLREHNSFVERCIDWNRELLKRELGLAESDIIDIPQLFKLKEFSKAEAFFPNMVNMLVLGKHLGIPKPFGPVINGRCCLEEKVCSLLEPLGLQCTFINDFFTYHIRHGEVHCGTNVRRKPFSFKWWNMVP

SMILES | pIC50
COc1cc(C(=O)N2C[C@H]3CC[C@@H]2[C@@H]3N)cc2nc(-c3cc4cccc(C[C@H]5CC[C@H](N)CC5)c4n3CC3CC3)n(C)c12 [Example 14, ((1R,4R,7R)-7-amino-2-azabicyclo[2.2.1]heptan-2-yl)(2-(7-(((trans)-4-aminocyclohexyl)methyl)-1-(cyclopropylmethyl)-1H-indol-2-yl)-7-methoxy-1-methyl-1H-benzo[d]imidazol-5-yl)methanone] | 7.42
COc1cc(C(=O)N2C[C@H]3CC[C@@H]2[C@@H]3N)cc2nc(-c3cc4cccc(C5(O)CCC5)c4n3CC3CC3)n(C)c12 [Example 218, ((1R,4R,7R)-7-amino-2-azabicyclo[2.2.1]heptan-2-yl)(2-(1-(cyclopropylmethyl)-7-(1-hydroxycyclobutyl)-1H-indol-2-yl)-7-methoxy-1-methyl-1H-benzo[d]imidazol-5-yl)methanone] | 7.24
COc1cc(C(=O)N2C[C@H]3CC[C@@H]2[C@@H]3N)cc2nc(-c3cc4cccc(C5CN(C(=O)Nc6ccccc6)C5)c4n3CC3CC3)n(C)c12 [Example 228, 3-(2-(5-((1R,4R,7R)-7-amino-2-azabicyclo[2.2.1]heptane-2-carbonyl)-7-methoxy-1-methyl-1H-benzo[d]imidazol-2-yl)-1-(cyclopropylmethyl)-1H-indol-7-yl)-N-phenylazetidine-1-carboxamide] | 7.39
COc1cc(C(=O)N2C[C@H]3CC[C@@H]2[C@@H]3N)cc2nc(-c3cc4cccc(-c5cnn(C[C@@H](C)O)c5)c4n3CC3CC3)n(C)c12 [Example 138, ((1R,4R,7R)-7-amino-2-azabicyclo[2.2.1]heptan-2-yl)(2-(1-(cyclopropylmethyl)-7-(1-((R)-2-hydroxypropyl)-1H-pyrazol-4-yl)-1H-indol-2-yl)-7-methoxy-1-methyl-1H-benzo[d]imidazol-5-yl)methanone] | 6.83
COc1cc(C(=O)N2C[C@H]3CC[C@@H]2[C@@H]3N)cc2nc(-c3cc4cccc(-c5cc[nH]n5)c4n3CC3CC3)n(C)c12 [Example 127, ((1R,4R,7R)-7-amino-2-azabicyclo[2.2.1]heptan-2-yl)(2-(1-(cyclopropylmethyl)-7-(1H-pyrazol-3-yl)-1H-indol-2-yl)-7-methoxy-1-methyl-1H-benzo[d]imidazol-5-yl)methanone] | 7.09
COc1cc(C(=O)N2C[C@H]3CC[C@@H]2[C@@H]3N)cc2nc(-c3cc4cccc(OC)c4n3CC3CC3)n(C)c12 [Example 148, ((1R,4R,7R)-7-amino-2-azabicyclo[2.2.1]heptan-2-yl)(2-(1-(cyclopropylmethyl)-7-methoxy-1H-indol-2-yl)-7-methoxy-1-methyl-1H-benzo[d]imidazol-5-yl)methanone] | 7.21
COc1cc(C(=O)N2C[C@H]3CC[C@@H]2[C@@H]3N)cc2nc(-c3cc4cccc(CCC(N)=O)c4n3CC3CC3)n(C)c12 [Example 20, 3-(2-{5-[(1R,4R,7R)-7-amino-2-azabicyclo[2.2.1]heptane-2-carbonyl]-7-methoxy-1-methyl-1H-1,3-benzodiazol-2-yl}-1-(cyclopropylmethyl)-1H-indol-7-yl)propanamide] | 7.33
COc1cc(C(=O)N2C[C@H](N)C[C@@H](F)C2)cc2nc(-c3cc4cccc(-c5ccc6c(c5)C(C)(O)C(=O)N6)c4n3CC3CC3)n(C)c12 (stereo partly drawn) [Example 208, 5-(2-(5-((3R,5R)-3-amino-5-fluoropiperidine-1-carbonyl)-7-methoxy-1-methyl-1H-benzo[d]imidazol-2-yl)-1-(cyclopropylmethyl)-1H-indol-7-yl)-3-hydroxy-3-methylindolin-2-one] | 7.15
COc1cc(C(=O)N2CC3CCC2C3N)cc2nc(-c3cc4cccc(Nc5cnc(C#N)nc5)c4n3CC3CC3)n(C)c12 (centres unmarked) [Example 167, 5-((2-(4-(7-amino-2-azabicyclo[2.2.1]heptane-2-carbonyl)-7-methoxy-1-methyl-1H-benzo[d]imidazol-2-yl)-1-(cyclopropyllmethyl)-1H-indol-7-yl)amino)pyrimidine-2-carbonitrile] | 6.86
COc1cc(C(=O)N2C[C@H]3CC[C@@H]2[C@@H]3N)cc2nc(-c3cc4cccc(C5CC(C(=O)N6CC[C@H](O)C6)C5)c4n3CC3CC3)n(C)c12 (single isomer, unassigned) [Example 54] | 7.04
COc1cc(C(=O)N2C[C@H]3CC[C@@H]2[C@@H]3N)cc2nc(-c3cc4cccc(-c5cc[nH]n5)c4n3CC3CC3(Cl)Cl)n(C)c12 (stereo partly drawn) [Example 152, ((1R,4R,7R)-7-amino-2-azabicyclo[2.2.1]heptan-2-yl)(2-(1-((2,2-dichlorocyclopropyl)meth-yl)-7-(1H-pyrazol-3-yl)-1H-indol-2-yl)-7-methoxy-1-methyl-1H-benzo[d]imidazol-5-yl)methanone] | 6.90
COc1cc(C(=O)N2C[C@H]3CC[C@@H]2[C@@H]3N)cc2nc(-c3cc4cccc(C5CCOCC5)c4n3CC3CC3)n(C)c12 [Example 3, ((1R,4R,7R)-7-amino-2-azabicyclo[2.2.1]heptan-2-yl)(2-(1-(cyclopropylmethyl)-7-(tetrahydro-2H-pyran-4-yl)-1H-indol-2-yl)-7-methoxy-1-methyl-1H-benzo[d]imidazol-5-yl)methanone] | 7.00
COc1cc(C(=O)N2CC3CCC2[C@@H]3N)cc2nc(-c3cc4cccc(-c5cn(C)nc5-c5ccccc5F)c4n3CC3CC3)n(C)c12 (stereo partly drawn) [Example 135, ((7R)-7-amino-2-azabicyclo[2.2.1]heptan-2-yl)(2-(1-(cyclopropylmethyl)-7-(3-(2-fluorophenyl)-1-methyl-1H-pyrazol-4-yl)-1H-indol-2-yl)-7-methoxy-1-methyl-1H-benzo[d]imidazol-5-yl)methanone] | 7.02
COc1cc(C(=O)N2C[C@H]3CC[C@@H]2[C@@H]3N)cc2nc(-c3cc4cccc(C5CCCC5)c4n3CC3CC3)n(C)c12 [Example 6, (1R,4R,7R)-2-{2-[7-cyclopentyl-1-(cyclopropylmethyl)-1H-indol-2-yl]-7-methoxy-1-methyl-1H-1,3-benzodiazole-5-carbonyl}-2-azabicyclo[2.2.1]heptan-7-amine] | 6.72
COc1cc(C(=O)N2C[C@H]3CC[C@@H]2[C@@H]3N)cc2nc(-c3cc4cccc(-c5cn[nH]c5)c4n3CC3CC3)n(C)c12 [Example 137, ((1R,4R,7R)-7-amino-2-azabicyclo[2.2.1]heptan-2-yl)(2-(1-(cyclopropylmethyl)-7-(1H-pyrazol-4-yl)-1H-indol-2-yl)-7-methoxy-1-methyl-1H-benzo[d]imidazol-5-yl)methanone] | 7.43
COc1cc(C(=O)N2C[C@H]3CC[C@@H]2[C@@H]3N)cc2nc(-c3cc4cccc(C5CN(C(=O)CCC(=O)O)C5)c4n3CC3CC3)n(C)c12 [Example 68, 4-[3-(2-{5-[(1R,4R,7R)-7-amino-2-azabicyclo[2.2.1]heptane-2-carbonyl]-7-methoxy-1-methyl-1H-1,3-benzodiazol-2-yl}-1-(cyclopropylmethyl)-1H-indol-7-yl)azetidin-1-yl]-4-oxobutanoic acid] | 6.77
COc1cc(C(=O)N2C[C@H]3CC[C@@H]2[C@@H]3N)cc2nc(-c3cc4cccc(-c5ccc(CNC(C)=O)c(CO)c5)c4n3CC3CC3)n(C)c12 [Example 223, N-(4-(2-(5-((1R,4R,7R)-7-amino-2-azabicyclo[2.2.1]heptane-2-carbonyl)-7-methoxy-1-methyl-1H-benzo[d]imidazol-2-yl)-1-(cyclopropylmethyl)-1H-indol-7-yl)-2-(hydroxymethyl)benzyl) acetamide] | 7.06
COc1cc(C(=O)N2C[C@H]3CC[C@@H]2[C@@H]3N)cc2nc(-c3cc4cccc(C5CCC5)c4n3CC3CC3)n(C)c12 [Example 7, (1R,4R,7R)-2-{2-[7-cyclobutyl-1-(cyclopropylmethyl)-1H-indol-2-yl]-7-methoxy-1-methyl-1H-1,3-benzodiazole-5-carbonyl}-2-azabicyclo[2.2.1]heptan-7-amine] | 6.80
COc1cc(C(=O)N2C[C@H]3CC[C@@H]2[C@@H]3N)cc2nc(-c3cc4cccc(C5CN(C(N)=O)C5)c4n3CC3CC3)n(C)c12 [Example 66, 3-(2-{5-[(1R,4R,7R)-7-amino-2-azabicyclo[2.2.1]heptane-2-carbonyl]-7-methoxy-1-methyl-1H-1,3-benzodiazol-2-yl}-1-(cyclopropylmethyl)-1H-indol-7-yl)azetidine-1-carboxamide] | 7.52
COc1cc(C(=O)N2CC3CCC2[C@@H]3N)cc2nc(-c3cc4cccc(-c5ccco5)c4n3CC3CC3)n(C)c12 (stereo partly drawn) [Example 130, ((7R)-7-amino-2-azabicyclo[2.2.1]heptan-2-yl)(2-(1-(cyclopropylmethyl)-7-(furan-2-yl)-1H-indol-2-yl)-7-methoxy-1-methyl-1H-benzo[d]imidazol-5-yl)methanone] | 6.75
COc1cc(C(=O)N2C[C@H]3CC[C@@H]2[C@@H]3N)cc2nc(-c3cc4cccc(C5CCCOC5)c4n3CC3CC3)n(C)c12 (stereo partly drawn) [Example 34, (1R,4R,7R)-2-{2-[1-(cyclopropylmethyl)-7-(oxan-3-yl)-1H-indol-2-yl]-7-methoxy-1-methyl-1H-1,3-benzodiazole-5-carbonyl}-2-azabicyclo[2.2.1]heptan-7-amine] | 7.03

same assay, conditions: human PAD4, rapid-fire mass spectrum (RFMS) assay; 5 nM hPAD4, 250 μM BAEE; read-out: hPAD4 RFMS IC50

SMILES | pIC50
CCOP(=O)(OCC)c1cccc2cc(-c3nc4cc(C(=O)N5C[C@H]6CC[C@@H]5[C@@H]6N)cc(OC)c4n3C)n(CC3CC3)c12 [Example 107, diethyl (2-{5-[(1R,4R,7R)-7-amino-2-azabicyclo[2.2.1]heptane-2-carbonyl]-7-methoxy-1-methyl-1H-1,3-benzodiazol-2-yl}-1-(cyclopropylmethyl)-1H-indol-7-yl)phosphonate] | 7.07
COc1cc(C(=O)N2C[C@H]3CC[C@@H]2[C@@H]3N)cc2nc(-c3cc4cccc(-c5cn(CCO)nn5)c4n3CC3CC3)n(C)c12 (stereo in doubt) [Example 108, 2-{4-[2-(5-{7-amino-2-azabicyclo[2.2.1]heptane-2-carbonyl}-7-methoxy-1-methyl-1H-1,3-benzodiazol-2-yl)-1-(cyclopropylmethyl)-1H-indol-7-yl]-1H-1,2,3-triazol-1-yl}ethan-1-ol] | 7.14

— patent US20220402950A1, “SUBSTITUTED BENZIMIDAZOLES AS PAD4 INHIBITORS” (BRISTOL-MYERS SQUIBB COMPANY, priority 2018, published 2022)
